± gives the expanded uncertainty stated by the source.
Test: excess molar enthalpy (molar enthalpy of mixing); xn = mol fraction of the nth substance listed
Settings: Liquid, Flow calorimetry

CCOC(=O)CC(C)=O [ethyl 3-oxobutanoate] + CC(C)O
excess molar enthalpy [kcal/mol]
Settings	298.15 K	313.15 K	328.15 K
100 kPa, x1 = 0.0997	0.236 ± 0.00526	0.266 ± 0.00598	0.283 ± 0.00621
100 kPa, x1 = 0.1998	0.369 ± 0.00813	0.422 ± 0.00908	0.454 ± 0.0098
100 kPa, x1 = 0.2999	0.446 ± 0.00956	0.518 ± 0.011	0.556 ± 0.012
100 kPa, x1 = 0.3499	0.472 ± 0.01	0.547 ± 0.0117	0.586 ± 0.0124
100 kPa, x1 = 0.4003	0.488 ± 0.0105	0.565 ± 0.0122	0.605 ± 0.0129
100 kPa, x1 = 0.4496	0.496 ± 0.0105	0.574 ± 0.0122	0.612 ± 0.0131
100 kPa, x1 = 0.5003	0.498 ± 0.0108	0.573 ± 0.0122	0.61 ± 0.0129
100 kPa, x1 = 0.5494	0.491 ± 0.0105	0.562 ± 0.012	0.597 ± 0.0127
100 kPa, x1 = 0.5995	0.476 ± 0.0103	0.543 ± 0.0117	0.573 ± 0.0122
100 kPa, x1 = 0.6505	0.452 ± 0.0098	0.513 ± 0.011	0.538 ± 0.0115
100 kPa, x1 = 0.7008	0.42 ± 0.00908	0.473 ± 0.0103	0.494 ± 0.0105
100 kPa, x1 = 0.7999	0.328 ± 0.00717	0.359 ± 0.00789	0.373 ± 0.00813
100 kPa, x1 = 0.9006	0.185 ± 0.0043	0.198 ± 0.00454	0.203 ± 0.00478
10000 kPa, x1 = 0.0994	0.231 ± 0.00502	0.26 ± 0.00574	0.276 ± 0.00621
10000 kPa, x1 = 0.1993	0.358 ± 0.00789	0.409 ± 0.00884	0.447 ± 0.00956
10000 kPa, x1 = 0.2992	0.435 ± 0.00932	0.498 ± 0.0108	0.548 ± 0.0117
10000 kPa, x1 = 0.3491	0.459 ± 0.0098	0.527 ± 0.0112	0.578 ± 0.0124
10000 kPa, x1 = 0.3995	0.477 ± 0.0103	0.544 ± 0.0117	0.597 ± 0.0127
10000 kPa, x1 = 0.4488	0.485 ± 0.0103	0.553 ± 0.0117	0.604 ± 0.0129
10000 kPa, x1 = 0.4995	0.487 ± 0.0105	0.551 ± 0.0117	0.602 ± 0.0129
10000 kPa, x1 = 0.5486	0.482 ± 0.0103	0.541 ± 0.0115	0.59 ± 0.0127
10000 kPa, x1 = 0.5987	0.468 ± 0.01	0.522 ± 0.0112	0.566 ± 0.0122
10000 kPa, x1 = 0.6497	0.447 ± 0.00956	0.491 ± 0.0105	0.532 ± 0.0115
10000 kPa, x1 = 0.7001	0.417 ± 0.00884	0.452 ± 0.0098	0.487 ± 0.0105
10000 kPa, x1 = 0.7994	0.326 ± 0.00717	0.342 ± 0.00741	0.367 ± 0.00789
10000 kPa, x1 = 0.9003	0.184 ± 0.0043	0.187 ± 0.0043	0.199 ± 0.00454

CCOC(=O)CC(C)=O [ethyl 3-oxobutanoate] + CCCO
excess molar enthalpy [kcal/mol]
Settings	298.15 K	313.15 K	328.15 K
100 kPa, x1 = 0.1001	0.208 ± 0.00454	0.237 ± 0.00526	0.256 ± 0.00574
100 kPa, x1 = 0.1998	0.324 ± 0.00693	0.378 ± 0.00813	0.414 ± 0.00884
100 kPa, x1 = 0.3003	0.396 ± 0.0086	0.464 ± 0.01	0.509 ± 0.011
100 kPa, x1 = 0.3502	0.42 ± 0.00908	0.493 ± 0.0105	0.539 ± 0.0115
100 kPa, x1 = 0.3994	0.436 ± 0.00932	0.512 ± 0.011	0.558 ± 0.012
100 kPa, x1 = 0.4501	0.446 ± 0.00956	0.522 ± 0.0112	0.565 ± 0.012
100 kPa, x1 = 0.4997	0.45 ± 0.00956	0.524 ± 0.0112	0.564 ± 0.012
100 kPa, x1 = 0.5505	0.446 ± 0.00956	0.517 ± 0.011	0.553 ± 0.0117
100 kPa, x1 = 0.5997	0.435 ± 0.00932	0.501 ± 0.0108	0.532 ± 0.0115
100 kPa, x1 = 0.6497	0.417 ± 0.00884	0.475 ± 0.0103	0.504 ± 0.0108
100 kPa, x1 = 0.7007	0.39 ± 0.00837	0.441 ± 0.00956	0.462 ± 0.01
100 kPa, x1 = 0.7996	0.307 ± 0.00669	0.341 ± 0.00741	0.351 ± 0.00765
100 kPa, x1 = 0.9004	0.175 ± 0.00406	0.187 ± 0.0043	0.193 ± 0.0043
10000 kPa, x1 = 0.1003	0.204 ± 0.00454	0.229 ± 0.00502	0.254 ± 0.00574
10000 kPa, x1 = 0.2001	0.318 ± 0.00693	0.364 ± 0.00789	0.407 ± 0.00884
10000 kPa, x1 = 0.3007	0.389 ± 0.00837	0.45 ± 0.00956	0.503 ± 0.0108
10000 kPa, x1 = 0.3506	0.412 ± 0.00884	0.474 ± 0.01	0.533 ± 0.0115
10000 kPa, x1 = 0.3998	0.427 ± 0.00908	0.492 ± 0.0105	0.552 ± 0.0117
10000 kPa, x1 = 0.4505	0.436 ± 0.00932	0.502 ± 0.0108	0.563 ± 0.012
10000 kPa, x1 = 0.5001	0.439 ± 0.00932	0.503 ± 0.0108	0.563 ± 0.012
10000 kPa, x1 = 0.5509	0.435 ± 0.00932	0.498 ± 0.0108	0.552 ± 0.0117
10000 kPa, x1 = 0.6	0.425 ± 0.00908	0.483 ± 0.0103	0.53 ± 0.0112
10000 kPa, x1 = 0.6501	0.407 ± 0.0086	0.457 ± 0.0098	0.502 ± 0.0108
10000 kPa, x1 = 0.701	0.38 ± 0.00813	0.421 ± 0.00908	0.461 ± 0.0098
10000 kPa, x1 = 0.7999	0.3 ± 0.00645	0.322 ± 0.00693	0.35 ± 0.00765
10000 kPa, x1 = 0.9005	0.17 ± 0.00382	0.179 ± 0.00406	0.19 ± 0.0043

From the NIST ThermoML archive (doi:10.1016/j.fluid.2008.03.012)
